In patent publication US11299467B2 (Antabio SAS, priority 2017, dated 2022):
≈ marks a conversion by molar mass, not a printed value. Where two headings read alike, the source gives them in different places.

Key:
[1] = test system: NTBC035-2 (K. pneumoniae strain expressing NDM-1, CMY-4 and SHV-11); assay: Meropenem MIC, broth micro-dilution, NTBC035-2; assay type: cell-based; conditions: Klebsiella pneumoniae, read-out: MIC mero
Description: (§1) The experiments were carried out using the ‘broth micro-dilution method’ according to the protocols M07-A8 established by the Clinical Laboratory Standards Institute (CLSI). Serial dilutions of the β-lactam antibiotic (Meropenem) were prepared in 96-well plates in cation-adjusted Mueller-Hinton broth (CAMHB); the concentration range was defined from 0.03 mg/L to 512 mg/L. The compounds were added at a constant concentration of 8 μg/mL. A bacterial inoculum of each strain (clinical isolates) was adjusted to a 0.5 McFarland turbidity standard in physiologic serum (0.9% NaCl), then diluted 1:100 in CAMHB and added to each well to give a final bacterial cell number of 5×10^5 CFU/well. After incubation for 18-20 hours in a heating chamber at 37° C., the growth inhibition was evaluated by the absence of any bacterial development.
(§2) Compounds of the invention were tested at a constant concentration of 8 μg/mL. […]
(§3) Experiments were carried out using the ‘broth micro-dilution method’ according to the protocols M07-A8 established by the Clinical Laboratory Standards Institute (CLSI). […] After incubation for 18-20 hours in a heating chamber at 37° C., the growth inhibition was evaluated by the absence of any bacterial development. […]

[2] = test system: NTBC123 (K. pneumoniae strain expressing NDM-1); assay: Meropenem MIC, broth micro-dilution, NTBC123; assay type: cell-based; conditions: Klebsiella pneumoniae, read-out: MIC mero
Description: as §1, §2, §3

[3] = test system: NTBC042 (E. coli strain expressing VIM-1, TEM-1, CTX-M-15, SHV-12); assay: Meropenem MIC, broth micro-dilution, NTBC042; assay type: cell-based; conditions: Escherichia coli, read-out: MIC mero
Description: as §1, §2, §3

[4] = test system: NTBC055 (E. Coli strain expressing VIM-1); assay: Meropenem MIC, broth micro-dilution, NTBC055; assay type: cell-based; conditions: Escherichia coli, read-out: MIC mero
Description: as §1, §2, §3

[5] = test system: NTBC099 (K. pneumonia strain expressing KPC-3, SHV-11 and TEM-1); assay: Meropenem MIC, broth micro-dilution, NTBC099; assay type: cell-based; conditions: Klebsiella pneumoniae, read-out: MIC mero
Description: as §1, with “Experiments” for “The experiments”, “meropenem (mero)” for “the β-lactam antibiotic (Meropenem)”, “compounds (the compound of Example 2, above, and/or WCK4234)” for “compounds”, “the” for “a constant”, “indicated in the table below.” for “of 8 μg/mL.”
NTBC091-1 (E. coli strain expressing KPC-2 and TEM-1); NTBC093 (E. cloacae strain expressing KPC-2 and TEM-1); NTBC096-1 (K. pneumonia strain expressing OXA-181 and SHV-11); NTBC099 (K. pneumonia strain expressing KPC-3, SHV-11 and TEM-1); and NTBC189 (K. pneumonia strain expressing TEM-OSBL, CTX-M-14 and OXA-48).

[6] = test system: NTBC019 (K. pneumonia strain expressing NDM-1, CTX-M-15 and OXA-181); assay: Meropenem MIC, broth micro-dilution, NTBC019; assay type: cell-based; conditions: Klebsiella pneumoniae
Description: as §1, with “Experiments” for “The experiments”, “meropenem (mero)” for “the β-lactam antibiotic (Meropenem)”, “compounds (the compound of Example 2, above, and/or WCK4234)” for “compounds”, “the” for “a constant”, “indicated in the table below.” for “of 8 μg/mL.”
(§4) NTBC019 (K. pneumonia strain expressing NDM-1, CTX-M-15 and OXA-181); NTBC185 (K. pneumonia strain expressing SHV-OSBL, TEM-OSBL, NDM-1 and OXA-48); NTBC186 (K. pneumonia strain expressing ACT-TYPE, VIM-1 and OXA-48); NTBC187 (K. pneumonia strain expressing SHV-OSBL, NDM-1 and OXA-48); and NTBC188 (K. pneumonia strain expressing NDM-1 and KPC-2).
Experiments were conducted as described above. Compounds (the compounds of Examples 2 and 26) were tested at 8 μg/mL. […] MIC values were determined for […]

[7] = test system: NTBC185 (K. pneumonia strain expressing SHV-OSBL, TEM-OSBL, NDM-1 and OXA-48); assay: Meropenem MIC, broth micro-dilution, NTBC185; assay type: cell-based; conditions: Klebsiella pneumoniae, read-out: MIC mero
Description: as §1, with “Experiments” for “The experiments”, “meropenem (mero)” for “the β-lactam antibiotic (Meropenem)”, “compounds (the compound of Example 2, above, and/or WCK4234)” for “compounds”, “the” for “a constant”, “indicated in the table below.” for “of 8 μg/mL.”
as §4

[8] = test system: NTBC186 (K. pneumonia strain expressing ACT-TYPE, VIM-1 and OXA-48); assay: Meropenem MIC, broth micro-dilution, NTBC186; assay type: cell-based; conditions: Klebsiella pneumoniae, read-out: MIC mero
Description: as §1, with “Experiments” for “The experiments”, “meropenem (mero)” for “the β-lactam antibiotic (Meropenem)”, “compounds (the compound of Example 2, above, and/or WCK4234)” for “compounds”, “the” for “a constant”, “indicated in the table below.” for “of 8 μg/mL.”
as §4

K. pneumoniae NTBC104 = assay: In vivo efficacy, mouse thigh infection with K. pneumoniae NTBC104; conditions: meropenem at 30 mg/kg alone, 9 hours post infection
Description: Mice were infected in the thigh with K. pneumoniae NTBC104. […] The MIC of meropenem in the presence of 8 ug/mL of the compound of Example 2 is 4 ug/mL.
At the end of the experiment (9 hours post infection) the animals were sacrificed and the numbers of colony forming units (CFUs) were measured in order to quantify bacterial load (extent of the infection).

[9] = test system: panel of clinical Enterobacteriacae strains expressing NDM enzymes (196 isolates); assay: Extended MIC profiling vs MBL-expressing clinical strains (meropenem potentiation); assay type: cell-based; conditions: 196 NDM-expressing clinical isolates
Text: By contrast, the same concentration of meropenem alone is only capable of stopping the growth of <1% of the strains and within the parameters of the experiment the cessation of growth of 90% of all strains could not be achieved with meropenem alone.
To assess the coverage and potentiation of meropenem by compounds of the invention, the susceptibility of around 200 clinical isolates was examined. The criteria for selection into the panel was that the clinical strain was resistant to carbapenems, but only expressing NDM enzyme variants and not serine betalactamase enzymes with carbapenemase activity such as KPC or OXA.

`C[C@@H](O)[C@H]1C(=O)N2C(C(=O)O)=C(S[C@@H]3CN[C@H](C(=O)N(C)C)C3)[C@H](C)[C@H]12` [Meropenem] gave an MIC [1] of 64 µg/mL, an MIC [2] of 128 µg/mL and an MIC [3] of 8 µg/mL. It also gave an MIC [4] of 4 µg/mL, an MIC [5] of 128 µg/mL (≈ 334 µM) and an MIC ([6]; read-out: MIC mero) of 64 µg/mL (≈ 167 µM). For the same molecule, the MIC ([6]; read-out: MIC, NTBC19) was 8 to 512 µg/mL (≈ 20.9 to 1340 µM), the MIC [7] was 128 µg/mL (≈ 334 µM) and the MIC [8] was 16 µg/mL (≈ 41.7 µM). For the same molecule, the “bacterial load (CFUs)” value (K. pneumoniae NTBC104) was “reduced bacterial load slightly” and the “strains whose growth is stopped by the same concentration (8 ug/mL) of meropenem alone” value [9] was < 1%.
